Assay results as given in patent publication US5156956A, “Transgultaminase” (Ajinomoto Co., Inc., priority 1987, dated 1992).
Read-outs that look alike come from different tables or passages of the source.

Legend:
BTG-1 [1] = target: T1, BTG-1 (Streptomyces mobaraensis, UniProt P81453); assay: biochemical; set-up: species or system Streptoverticillium mobaraense IFO 13819; conditions: for inhibition at 1000 µM: read-out: BTG-1 (%) activity with inhibitor
T1 construct: BTGase is dissolved in the culture solution and can be harvested from the culture filtrate; endogenous in cells; host or cells: Streptoverticillium mobaraense IFO 13819 (natural producer; purified from culture filtrate)
T1 sequence (P81453 77-407): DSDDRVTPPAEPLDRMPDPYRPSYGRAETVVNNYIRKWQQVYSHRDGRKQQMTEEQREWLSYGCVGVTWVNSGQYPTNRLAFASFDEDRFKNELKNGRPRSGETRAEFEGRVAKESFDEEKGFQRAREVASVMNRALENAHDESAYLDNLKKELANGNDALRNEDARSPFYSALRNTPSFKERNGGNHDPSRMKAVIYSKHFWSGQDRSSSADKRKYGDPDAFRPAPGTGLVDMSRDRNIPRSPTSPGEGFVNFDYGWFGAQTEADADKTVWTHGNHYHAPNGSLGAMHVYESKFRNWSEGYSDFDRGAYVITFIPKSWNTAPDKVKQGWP
Experimental: (§1) Measurement of the activity of BTGase is carried out by performing a reaction using benzyloxycarbonyl-L-glutaminyl glycine and hydroxylamine as substrates in the absence of Ca^2+, forming an iron complex with the resulting hydroxamic acid in the presence of trichloroacetic acid, measuring absorption at 525 nm and determining the amount of hydroxamic acid by a calibration curve to calculate the activity. The BTGase activity is measured by the method described below, unless otherwise indicated.
(§2) To 0.05 ml of an enzyme solution is added 0.5 ml of Reagent A and they are mixed with each other. After reacting at 37° C. for 30 minutes, Reagent B is added thereto to discontinue the reaction and form an Fe complex. Thereafter, absorbance is measured at 525 nm. […] Separately, a calibration curve is prepared using L-glutamic acid γ-monohydroxamio acid instead of the enzyme solution, and the amount of hydroxamic acid produced is determined by the difference in absorbance described above. An enzyme activity which produces 1 μmol of hydroxamic acid per 1 minute is defined as 1 unit.

BTG-2 [2] = target: T2, BTG-2 (Streptomyces griseocarneus, UniProt A0ABX7RSJ1); assay: biochemical; set-up: species or system Streptoverticillium griseocarneum IFO 12776; conditions: for inhibition at 1000 µM: read-out: BTG-2 (%) activity with inhibitor
T2 construct: Ca2+-independent; made as pre-pro-protein
Experimental: as §1, §2

BTG-3 [3] = target: T3, BTG-3 (Streptomyces cinnamoneus, UniProt Q8GR90); assay: biochemical; conditions: for inhibition at 1000 µM: read-out: BTG-3 (%) activity with inhibitor
T3 construct: Ca2+-independent; made as pre-pro-protein
T3 sequence (Q8GR90 86-416): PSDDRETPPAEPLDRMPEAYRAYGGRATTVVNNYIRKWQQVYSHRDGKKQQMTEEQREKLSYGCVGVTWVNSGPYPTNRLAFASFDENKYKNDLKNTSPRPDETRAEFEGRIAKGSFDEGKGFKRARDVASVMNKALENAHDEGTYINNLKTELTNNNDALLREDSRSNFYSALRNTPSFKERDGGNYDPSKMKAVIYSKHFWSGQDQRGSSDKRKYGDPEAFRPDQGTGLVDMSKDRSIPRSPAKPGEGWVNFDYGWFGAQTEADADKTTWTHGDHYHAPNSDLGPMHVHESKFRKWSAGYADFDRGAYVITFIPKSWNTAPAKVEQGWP
Experimental: as §1, §2

all BTGases [4] = tested on: all BTGases
BTG-1 [5] = target: T1, BTG-1; assay: Influence of metal ions on activity; format: biochemical, Streptoverticillium mobaraense IFO 13819; conditions: metal ion 1 mM; None = 100; 30 min
Experimental: as §1, §2

BTG-2 [6] = target: T2, BTG-2; format: biochemical, Streptoverticillium griseocarneum IFO 12776; conditions: metal ion 1 mM; None = 100; 30 min
Experimental: as §1, §2

BTG-3 [7] = target: T3, BTG-3; assay: Influence of metal ions on activity; format: biochemical; conditions: metal ion 1 mM; None = 100; 30 min
Experimental: as §1, §2

all BTGases [8] = assay: Influence of metal ions, statement on all BTGases; format: biochemical, Streptoverticillium; conditions: metal ion 1 mM
Text: In all BTGases, the activity is inhibited by Cu^2+ and Zn^2+.

[9] = Activity of the enzymes without added Ca2+; format: biochemical; conditions: no CaCl2 added (Table 5)
Experimental: as §1

Optimum pH = format: biochemical; conditions: 37° C. for 10 minutes
pH stability = format: physicochemical; conditions: treatment at 37° C. for 10 minutes
Temperature stability = format: physicochemical; conditions: pH 7 for 10 minutes
[10] = inhibitor 1 mM, 25° C. for 30 minutes, None = 100
[11] = inhibitor 1 mM, 25° C. for 30 minutes

Molecule: CCN1C(=O)C=CC1=O [NEM, N-ethylmaleimide]
- inhibition at 1000 µM (BTG-1 [1]; [10]): 5%
- inhibition at 1000 µM (BTG-2 [2]): 5%
- inhibition at 1000 µM (BTG-3 [3]; [10]): 3%
- Effect of inhibitor on activity of all BTGases (in words) (all BTGases [4]; [11]): inhibited

Molecule: O=C(O)c1cc[c]([Hg][Cl])cc1 [PCMB, p-chloromercury benzoic acid]
- BTG-1 (%) activity with inhibitor (BTG-1 [1]; [10]): 54%
- BTG-2 (%) activity with inhibitor (BTG-2 [2]; [10]): 61%
- BTG-3 (%) activity with inhibitor (BTG-3 [3]; [10]): 63%
- Effect of inhibitor on activity of all BTGases (in words) (all BTGases [4]; [11]): inhibited

Molecule: O=C(O)CI [Monoiodoacetic acid]
- inhibition at 1000 µM (BTG-1 [1]): 64%
- inhibition at 1000 µM (BTG-2 [2]): 50%
- inhibition at 1000 µM (BTG-3 [3]): 67%
- Effect of inhibitor on activity of all BTGases (in words) (all BTGases [4]): inhibited

Molecule: [Cl-].[Cl-].[Zn+2] [ZnCl2]
- BTG-1 (%) activity with metal ion (BTG-1 [5]): 15%
- BTG-2 (%) activity with metal ion (BTG-2 [6]): 24%
- BTG-3 (%) activity with metal ion (BTG-3 [7]): 24%
- Effect of metal ion on activity of all BTGases (in words) (all BTGases [8]): inhibited

Molecule: [Cl][Cu][Cl] [CuCl2]
- BTG-1 (%) activity with metal ion (BTG-1 [5]): 79%
- BTG-2 (%) activity with metal ion (BTG-2 [6]): 82%
- BTG-3 (%) activity with metal ion (BTG-3 [7]): 86%
- Effect of metal ion on activity of all BTGases (in words) (all BTGases [8]): inhibited

B1: BTG-1: transglutaminase of Streptoverticillium mobaraense IFO 13819 (protein, UniProt P81453 77-407, looked up)
Protein-glutamine …: DSDDRVTPPAEPLDRMPDPYRPSYGRAETVVNNYIRKWQQVYSHRDGRKQQMTEEQREWLSYGCVGVTWVNSGQYPTNRLAFASFDEDRFKNELKNGRPRSGETRAEFEGRVAKESFDEEKGFQRAREVASVMNRALENAHDESAYLDNLKKELANGNDALRNEDARSPFYSALRNTPSFKERNGGNHDPSRMKAVIYSKHFWSGQDRSSSADKRKYGDPDAFRPAPGTGLVDMSRDRNIPRSPTSPGEGFVNFDYGWFGAQTEADADKTVWTHGNHYHAPNGSLGAMHVYESKFRNWSEGYSDFDRGAYVITFIPKSWNTAPDKVKQGWP
- Activity (%) of the enzyme, metal ion: None [9]: 99%
- Optimum pH (Optimum pH): 6-7
- pH Stability (stable pH range) (pH stability): 5-9
- Temperature stability (%), 40° C. residual rate (Temperature stability; 40° C.): 88%
- Temperature stability (%), 50° C. residual rate (Temperature stability; 50° C.): 74%
